Reference: patent publication US8449864B2 (The Board of Trustees of the Leland Stanford Junior …, priority 2006, dated 2013)

Assays:
[1] = system: PMCs; test: 3H-serotonin release from peritoneal mast cells; assay type: cell-based, mouse; conditions: BAPTA-AM, 30 min; ET-1 4 μM
Source text: Results are mean ±SEM of 3 experiments. […] (data were pooled from triplicate determinations in two independent experiments that gave similar results).

[2] = system: PLCs containing PMCs; test: NT degradation by peritoneal lavage cells (PLCs) containing peritoneal mast cells; assay type: cell-based, mouse; conditions: BAPTA-AM 50 mM pre-treatment; NT 10 μM, 30 min at 37° C.
Procedure: FIG. 5. Neurolysin and carboxypeptidase inhibitors prevent NT degradation by peritoneal mast cells. Kit^+/+ PLCs containing 5×10^4 PMCs were pre-treated for 15 min at 37° C. with one of the following protease inhibitors: chymostatin (chym, chymase inhibitor at 100 μM), CFp-Ala-Ala-Phe-pAB (CFp, […] at 10 μM only for PLCs), potato carboxypeptidase inhibitor (PCI, carboxypeptidase inhibitor at 10 μg/ml) and phosphodiepryl 03 (p03, neurolysin inhibitor at 100 nM for PLCs. Cells were then incubated with NT (10 μM) for 30 min at 37° C. Results are the percentage of NT remaining after incubation with cells compared to the starting concentration of NT (n=4-9 per group).
FIG. 12. (a), PLCs containing 1×10^4 PMCs obtained from either wild type C57BL/6 mice, Ntsr1-deficient (Ntsr1^−/−) mice or Ntsr2-deficient (Ntsr2^−/−) mice were incubated for 2 h with ^3H-5-hydroxytryptamine (3H-serotonin) at 37° C. and stimulated for 15 min at 37° C. with either ET-1 (4 μM) or NT (10 μM). (b), PLCs containing 1×10^4 PMCs obtained from C57BL/6 mice were incubated for 2 h with ^3H-serotonin and stimulated for 15 min with either ET-1 (4 μM) or NT (10 μM). In a separate set of experiments, cells were pre-incubated with BAPTA-AM (Sigma) ([…], 15 min at […]) before the addition of the stimuli. Results are mean ±SEM of 3 experiments. (c), mMC-CPA activity was measured in supernatants obtained from Kit^+/+ PLCs containing 5×10^4 PMCs that were stimulated for 30 min at 37° C. with either ET-1 (4 μM) or NT (10 μM). (d), PLCs containing 5×10^4 PMCs from C57BL/6J mice were pre-treated for 15 min at 37° C. with BAPTA-AM ([…], a Ca^2+ chelator that can reduce MC degranulation) and then incubated with NT (10 μM) for 30 min at 37° C. Results are expressed as the percentage of NT remaining after incubation with cells compared to that in samples of NT incubated in vehicle alone at 37° C. (data were pooled from triplicate determinations in two independent experiments that gave similar results). (e), Expression of mRNA for NT-receptors in the AtT20 neuroendocrine cell line, the mast cell line C1.MC/C57.1, C57BL/6J BMCMCs, Kit^+/+ BMCMCs and peritoneal mast cells purified from Kit^+/+ mice (PMCs).
NT, ET-1, C-reactive protein, and TNF measurements. Concentrations of NT, C-reactive protein, ET-1 and TNF were measured by ELISA (Bachem Peninsula Labs for NT; Biomedica, Vienna for C-reactive protein and ET-1; BD Biosciences for TNF). […] The detection limits for the ELISA kits were: 24 fmol/ml (NT), 0.048 fmol/ml (ET-1), 0.124 ng/ml (C-reactive protein) and […] (human TNF).

[3] = molecular target: NTR2 (Homo sapiens, UniProt O95665); conditions: cited from earlier work
Chain of NTR2 (O95665 whole entry, species assumed): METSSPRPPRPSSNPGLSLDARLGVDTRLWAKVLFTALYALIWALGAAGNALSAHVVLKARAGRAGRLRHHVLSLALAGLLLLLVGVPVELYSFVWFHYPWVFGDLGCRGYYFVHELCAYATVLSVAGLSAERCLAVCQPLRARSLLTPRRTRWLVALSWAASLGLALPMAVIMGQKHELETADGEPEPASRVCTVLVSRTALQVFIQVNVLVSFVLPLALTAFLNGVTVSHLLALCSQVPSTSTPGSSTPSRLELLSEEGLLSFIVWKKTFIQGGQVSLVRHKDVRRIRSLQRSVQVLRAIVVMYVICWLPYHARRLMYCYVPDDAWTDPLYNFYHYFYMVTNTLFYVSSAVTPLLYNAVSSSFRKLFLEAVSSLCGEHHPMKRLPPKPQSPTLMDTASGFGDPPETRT

[4] = system: NTR1; conditions: cited from earlier work
[5] = system: mMC-CPA; test: CPA enzymatic activity in shRNA-transduced BMCMCs; assay type: cell-based, mouse
Procedure: (§1) FIG. 9. Use of shRNA approach to knock-down NLN and mMC-CPA in BMCMCs. Protein expression for: (a), NLN and (b), mMC-CPA; and (c), mMC-CPA activity in Kit^+/+ BMCMCs treated with either empty vector or shRNAs. (d), mMCP-4 and mMCP-5 protein expression in Kit^+/+ BMCMCs treated with empty vector, NLN-shRNA or mMC-CPA-shRNA.
CPA enzymatic activity assay. CPA enzymatic activity was assessed by measuring reduction of absorbance of a chromogenic substrate (N-[4-Methoxyphenylazoformyl]-Phe-OH) (Bachem Peninsula Labs) specific for CPA as previously described.

[6] = system: Kit+/+ BMCMCs; test: Beta-hexosaminidase release of BMCMCs upon FcεRI cross-linking; assay type: cell-based, mouse; conditions: vs empty vector-treated cells
Procedure: FIG. 10. BMCMCs treated with shRNAs degranulate after high affinity Fc receptor for IgE (FcεRI) cross-linking to the same extent than BMCMCs treated with empty vector. Beta-hexosaminidase release by Kit^+/+ BMCMCs treated with empty vector, NLN-shRNA for NLN or mMC-CPA-shRNA. Cells (1.25×10^5) were sensitized with IgE mAb to dinitro-phenol (DNP, 2 μg/ml) overnight at 37° C. and then were challenged with DNP-human serum albumin (DNP-HSA, 10 ng/ml) for 30 min at 37° C.
Beta-hexosaminidase release. Beta-hexosaminidase was measured on an enzyme-linked immunosorbent assay “reader” that detects the hydrolysis product of p-nitrophenyl-N-acetyl-b-D-glucosamine (Sigma) used as a substrate.

[7] = system: mMC-CPA; test: shRNA knock-down of mMC-CPA protein in BMCMCs (Western blot); assay type: cell-based, mouse; conditions: Kit+/+ BMCMCs, lentiviral shRNA
Source text: as §1
Lentiviral vector production. pLentiLox 3.7 (pLL3.7), a vector engineered to co-express enhanced green fluorescent protein (GFP) as a reporter gene, that permits infected cells to be tracked by flow cytometry, was digested with Xhol and Hpal and the annealed oligos (SEQ ID NO. 3) 5′-t-[…]-ttcaagaga-[…]-ttttttc-3′ and (SEQ ID NO. 4) 5′-tcgagaaaaaa-[…]-tctcttgaa-[…]-a-3′ for mMC-CPA and (SEQ ID NO. 5) 5′-t-[…]-ttcaagaga-[…]-ttttttc-3′ (SEQ ID NO. 6) 5′-tcgagaaaaaa-[…]-tctcttgaa-[…]-a-3′ for NLN were ligated into pLL3.7 to yield a directed shRNA-producing vector. The 19 nt target sequences are indicated in capitals in the oligonucleotide sequence. Active viral stocks were created and concentrated as previously described. Briefly, 293T cells were transfected with the transfer vector plasmid pLL3.7-mMC-CPA or pLL3.7-NLN or pLL3.7 (empty vector), the VSV-G envelope-encoding plasmid pMD.G, and the packaging plasmid CMVΔR8.74 using the calcium phosphate method. […]

[8] = system: Kit+/+ BMCMCs; test: NT degradation by A23187-activated shRNA-transduced BMCMCs; assay type: cell-based, mouse; conditions: A23187 5 μM; NT 10 μM, 30 min at 37° C.
Procedure: FIG. 8. MC-associated neurolysin (NLN) contributes to the MCs' ability to reduce NT-induced hypotension. (a) Identification of NLN in the membrane and cytosol fractions of C1.MC/C57.1 MCs and C57BL/6J BMCMCs. (b) Degradation of NT (10 μM) by membrane and cytosol preparations obtained from Kit^+/+ BMCMCs (2×10^6 cells/preparation) that were pre-treated with either vehicle or with Pro-Ile (10 μM, 15 min at […]). Results are expressed as the percentage of NT remaining after incubation with membrane or cytosol preparations compared to that in samples of NT incubated in vehicle alone (n=3). […] Results are expressed as the percentage of NT remaining in the samples compared to that in samples of NT incubated in vehicle alone at 37° C. […] (e) Changes in MAP versus baseline levels (=“0”, measured 3 min after injection of 300 μl saline, i.p.) at various times after injection of NT (6 nmol in 300 μl saline, i.p.) in Kit^W/W-v mice which had been engrafted i.p. with Kit^+/+ BMCMCs treated with either empty vector (empty vector MCs→Kit^W/W-v), NLN-shRNA (NLN-shRNA MCs→Kit^W/W-v) or mMC-CPA-shRNA (mMC-CPA-shRNA MCs→Kit^W/W-v). […]
NT, ET-1, C-reactive protein, and TNF measurements. Concentrations of NT, C-reactive protein, ET-1 and TNF were measured by ELISA (Bachem Peninsula Labs for NT; Biomedica, Vienna for C-reactive protein and ET-1; BD Biosciences for TNF). […]

Molecule: CC(=O)OCOC(=O)CN(CC(=O)OCOC(C)=O)c1ccccc1OCCOc1ccccc1N(CC(=O)OCOC(C)=O)CC(=O)OCOC(C)=O [BAPTA-AM]
- ET-1-induced PMC serotonin release [1]: markedly inhibited
- ability of PMCs to degrade NT [2]: did not reduce the ability of PMCs to degrade NT

Molecule: COc1cccc(OC)c1-c1cc(C(=O)NC2(C(=O)O)C3CC4CC(C3)CC2C4)nn1-c1ccc(C(=O)N(C)CCCN(C)C)cc1C(C)C (stereo not drawn) [SR142948A]
- affinity for NTR2 [3]: nanomolar affinity
- affinity for NTR1 relative to SR48692 [4]: higher affinity for NTR1 than SR48692
- affinity for NTR1 ([4]; different tissues and cells from various species): nanomolar affinity

B1: mMC-CPA-shRNA: lentivirus-delivered short hairpin RNA silencing mMC-CPA, SEQ ID NO. 3/4 (nucleic acid)
chain 1: TGAAACAGTTTGATGTGAAATTCAAGAGATTTCACATCAAACTGTTTCTTTTTTC
chain 2: TCGAGAAAAAAGAAACAGTTTGATGTGAAATCTCTTGAATTTCACATCAAACTGTTTCA
- mMC-CPA enzymatic activity [5]: substantially reduced
- degranulation upon FcεRI cross-linking [6]: degranulated to the same extent
- reduction in mMC-CPA protein expression level [7]: 90%
- ability to degrade NT after activation with A23187 [8]: significantly reduced ability to degrade NT
